biological target: T1, procaspase-6 (Homo sapiens, UniProt P55212); assay: SPR binding affinity for procaspase-6 (avi-tagged, biotinylated construct on neutravidin chip, Biacore 8K); settings: binding affinities for procaspase-6, SPR
T1 sequence (P55212 1-293): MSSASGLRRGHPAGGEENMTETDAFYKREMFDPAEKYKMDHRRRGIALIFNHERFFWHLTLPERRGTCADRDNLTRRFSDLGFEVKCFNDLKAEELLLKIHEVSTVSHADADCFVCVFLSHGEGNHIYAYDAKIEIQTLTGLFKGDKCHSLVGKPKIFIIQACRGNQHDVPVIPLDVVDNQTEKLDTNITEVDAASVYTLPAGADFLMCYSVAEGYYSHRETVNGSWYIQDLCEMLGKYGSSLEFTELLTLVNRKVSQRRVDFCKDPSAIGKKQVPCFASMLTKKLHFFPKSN
Source text: We used SPR to assess the binding affinity of test compounds, using an avi-tagged (biotinylated) procaspase-6 construct that was captured onto a neutravidin-coated sensor chip in a Biacore 8K instrument. […] The average of the triplicate KD values for each analog was furthermore used to calculate the experimental binding energies (ΔG) provided in the figures that follow.

c1ccc(-c2cccnc2NCc2cccc3cc[nH]c23)nc1 [ELG-000463] and c1ccc(-c2cccnc2NCc2cccc3cn[nH]c23)nc1 [ELG-000472, N-((1H-indazol-7-yl)methyl)-[2,3′-bipyridin]-2′-amine] fall in the same range of Kd: 50 to 100 µM for the first, 50 to 100 µM for the second.

Compared with c1ccc(-c2cccnc2NCc2cccc3ccoc23)nc1 [ELG-000468, N-(benzofuran-7-ylmethyl)-[2,3′-bipyridin]-2′-amine], c1cnnc(-c2cccnc2NCc2cccc3ccoc23)c1 [ELG-000488, N-(benzofuran-7-ylmethyl)-3-(pyridazin-3-yl) pyridin-2-amine] is lower in Kd: 50 to 100 µM for the first, 10 to 50 µM for the second.

Compared with Fc1ccc(CNc2ncccc2-c2ccccn2)c2occc12 [ELG-000469, N-((4-fluorobenzofuran-7-yl)methyl)-[2,3′-bipyridin]-2′-amine], Fc1ccc(CNc2ncccc2-c2cccnn2)c2occc12 [ELG-000481, N-((4-fluorobenzofuran-7-yl)methyl)-3-(pyridazin-3-yl)pyridin-2-amine] is lower in Kd: 50 to 100 µM for the first, 10 to 50 µM for the second.

Compared with Fc1ccc(CNc2ncccc2-c2ccccn2)c2[nH]ccc12 [ELG-000483], Fc1ccc(CNc2ncccc2-c2cccnn2)c2[nH]ccc12 [ELG-000504, N-((4-fluoro-1H-indol-7-yl)methyl)-3-(pyridazin-3-yl)pyridin-2-amine] is lower in Kd: 50 to 100 µM for the first, less than 10 µM for the second.

Compared with c1cnnc(-c2cccnc2NCc2cccc3ocnc23)c1 [ELG-000491, N-(benzo[d]oxazol-4-ylmethyl)-3-(pyridazin-3-yl)pyridin-2-amine], c1ccc(-c2cccnc2NCc2cccc3ocnc23)nc1 [ELG-000497] is higher in Kd: less than 10 µM for the first, 50 to 100 µM for the second. The first binds more tightly here.

Fc1ccc(CNc2ncccc2-c2ccccn2)c2[nH]ncc12 [ELG-000499, N-((4-fluoro-1H-indazol-7-yl)methyl)-[2,3′-bipyridin]-2′-amine] and Fc1ccc(CNc2ncccc2-c2cccnn2)c2[nH]ncc12 [ELG-000506, N-((4-fluoro-1H-indazol-7-yl)methyl)-3-(pyridazin-3-yl)pyridin-2-amine] cannot be ordered by Kd: less than 10 µM for the first, less than 10 µM for the second.

First: c1cnnc(-c2cccnc2NCc2cccc3ccsc23)c1 [ELG-000502, N-(benzo[b]thiophen-7-ylmethyl)-3-(pyridazin-3-yl)pyridin-2-amine]
Second: c1ccc(-c2cccnc2NCc2cccc3ccsc23)nc1 [ELG-000510, N-(benzo[b]thiophen-7-ylmethyl)-[2,3′-bipyridin]-2′-amine]
The Kd of the first is lower: 10 to 50 µM for the first, 50 to 100 µM for the second.

Compared with c1cnnc(-c2cccnc2NCc2cccc3scnc23)c1 [ELG-000507, N-(benzo[d]thiazol-4-ylmethyl)-3-(pyridazin-3-yl)pyridin-2-amine], c1ccc(-c2cccnc2NCc2cccc3scnc23)nc1 [ELG-000511] is higher in Kd: less than 10 µM for the first, 50 to 100 µM for the second.

First: Fc1ccc(CNc2ncccc2-c2cccnn2)c2sccc12 [ELG-000515, N-((4-fluorobenzo[b]thiophen-7-yl)methyl)-3-(pyridazin-3-yl)pyridin-2-amine]
Second: Fc1ccc(CNc2ncccc2-c2ccccn2)c2sccc12 [ELG-000518]
The Kd of the first is lower: less than 10 µM for the first, 50 to 100 µM for the second. The first binds more tightly here.

First: Fc1ccc(CNc2ncccc2-c2cccnn2)c2ncsc12 [ELG-000522, N-((7-fluorobenzo[d]thiazol-4-yl)methyl)-3-(pyridazin-3-yl)pyridin-2-amine]
Second: Fc1ccc(CNc2ncccc2-c2ncc[nH]2)c2ncsc12 [ELG-000526, N-((7-fluorobenzo[d]thiazol-4-yl)methyl)-3-(1H-imidazol-2-yl)pyridin-2-amine]
The Kd of the first is lower: less than 10 µM for the first, 10 to 50 µM for the second. The first binds more tightly here.

c1cnc(NCc2cccc3cc[nH]c23)c(-c2ncc[nH]2)c1 [ELG-000523, N-((1H-indol-7-yl)methyl)-3-(1H-imidazol-2-yl)pyridin-2-amine] and c1cnc(NCc2cccc3cn[nH]c23)c(-c2ncc[nH]2)c1 [ELG-000538, N-((1H-indazol-7-yl)methyl)-3-(1H-imidazol-2-yl)pyridin-2-amine] fall in the same range of Kd: 10 to 50 µM for the first, 10 to 50 µM for the second.

First: Fc1ccc(CNc2ncccc2-c2ncc[nH]2)c2[nH]ncc12 [ELG-000525, N-((4-fluoro-1H-indazol-7-yl)methyl)-3-(1H-imidazol-2-yl)pyridin-2-amine]
Second: Fc1ccc(CNc2ncccc2-c2ncc[nH]2)c2[nH]ccc12 [ELG-000536, N-((4-fluoro-1H-indol-7-yl)methyl)-3-(1H-imidazol-2-yl)pyridine-2-amine]
The Kd of the first is lower: less than 10 µM for the first, 10 to 50 µM for the second.

Compared with Fc1ccc(CNc2ncccc2-c2ncc[nH]2)c2sccc12 [ELG-000530, N-((4-fluorobenzo[b]thiophen-7-yl)methyl)-3-(1H-imidazol-2-yl)pyridin-2-amine], Fc1ccc(CNc2ncccc2-c2ncc[nH]2)c2sncc12 [ELG-000548] is higher in Kd: 10 to 50 µM for the first, 50 to 100 µM for the second. The first binds more tightly here.

c1cnc(NCc2cccc3scnc23)c(-c2ncc[nH]2)c1 [ELG-000531, N-(benzo[d]thiazol-4-ylmethyl)-3-(1H-imidazol-2-yl)pyridin-2-amine] and c1cnc(NCc2cccc3ocnc23)c(-c2ncc[nH]2)c1 [ELG-000537, N-(benzo[d]oxazol-4-ylmethyl)-3-(1H-imidazol-2-yl)pyridin-2-amine] fall in the same range of Kd: 50 to 100 µM for the first, 50 to 100 µM for the second.

First: Fc1ccc(CNc2ncccc2-c2cccnn2)c2sncc12 [ELG-000532, N-((4-fluorobenzo[d]isothiazol-7-yl)methyl)-3-(pyridazin-3-yl)pyridin-2-amine]
Second: Fc1ccc(CNc2ncccc2-c2ccccn2)c2sncc12 [ELG-000549, N-((4-fluorobenzo[d]isothiazol-7-yl)methyl)-[2,3′-bipyridin]-2′-amine]
The Kd of the first is lower: 10 to 50 µM for the first, greater than 100 µM for the second.

First: c1cnc(NCc2cccc3ccsc23)c(-c2ncc[nH]2)c1 [ELG-000534, N-(benzo[b]thiophen-7-ylmethyl)-3-(1H-imidazol-2-yl)pyridin-2-amine]
Second: c1cnc(NCc2cccc3ccoc23)c(-c2ncc[nH]2)c1 [ELG-000535]
The Kd of the first is higher: greater than 100 µM for the first, 50 to 100 µM for the second.

c1ccc(-c2cccnc2NCc2cccc3cnsc23)nc1 [ELG-000552, N-(benzo[d]isothiazol-7-ylmethyl)-[2,3′-bipyridin]-2′-amine] and c1cnnc(-c2cccnc2NCc2cccc3cnsc23)c1 [ELG-000559] fall in the same range of Kd: 50 to 100 µM for the first, 50 to 100 µM for the second.

First: c1cnc(NCc2cccc3cnsc23)c(-c2ncc[nH]2)c1 [ELG-000558]
Second: c1cnc(NCc2cccc3cnoc23)c(-c2ncc[nH]2)c1 [ELG-000560, N-(benzo[d]isoxazol-7-ylmethyl)-3-(1H-imidazol-2-yl)pyridin-2-amine]
The Kd of the first is higher: 50 to 100 µM for the first, 10 to 50 µM for the second. The second binds more tightly here.

c1cnnc(-c2cccnc2NCc2cccc3cnoc23)c1 [ELG-000563] and c1ccc(-c2cccnc2NCc2cccc3cnoc23)nc1 [ELG-000567, N-(benzo[d]isoxazol-7-ylmethyl)-[2,3′-bipyridin]-2′-amine] fall in the same range of Kd: 50 to 100 µM for the first, 50 to 100 µM for the second.
